Laboratory results as given in PMC9743148 (Annals of oncology : official journal of the European …, 2020).

Test system: patients with advanced solid tumors
Experiment: Treatment-emergent adverse events
Assay type: in vivo, human
Conditions: Combined q.d. cohorts (n = 44)

C=CC(=O)N1CC[C@H](n2nc(C#Cc3cc(OC)cc(OC)c3)c3c(N)ncnc32)C1 [futibatinib]
ALT increased TEAE, Any grade: 11 (25) n (%)
ALT increased TEAE, Grade 1: 4 (9) n (%)
ALT increased TEAE, Grade 2: 4 (9) n (%)
ALT increased TEAE, Grade 3: 3 (7) n (%)
ALT increased TEAE, Grade 4: 0 (0) n (%)
AST increased TEAE, Any grade: 11 (25) n (%)
AST increased TEAE, Grade 1: 4 (9) n (%)
AST increased TEAE, Grade 2: 5 (11) n (%)
AST increased TEAE, Grade 3: 2 (5) n (%)
AST increased TEAE, Grade 4: 0 (0) n (%)
Abdominal pain TEAE, Any grade: 6 (14) n (%)
Abdominal pain TEAE, Grade 1: 1 (2) n (%)
Abdominal pain TEAE, Grade 2: 4 (9) n (%)
Abdominal pain TEAE, Grade 3: 1 (2) n (%)
Abdominal pain TEAE, Grade 4: 0 (0) n (%)
Alopecia TEAE, Any grade: 6 (14) n (%)
Alopecia TEAE, Grade 1: 6 (14) n (%)
Alopecia TEAE, Grade 2: 0 (0) n (%)
Alopecia TEAE, Grade 3: 0 (0) n (%)
Alopecia TEAE, Grade 4: 0 (0) n (%)
Anemia TEAE, Any grade: 9 (20) n (%)
Anemia TEAE, Grade 1: 1 (2) n (%)
Anemia TEAE, Grade 2: 6 (14) n (%)
Anemia TEAE, Grade 3: 2 (5) n (%)
Anemia TEAE, Grade 4: 0 (0) n (%)
Any TEAE, Any grade: 44 (100) n (%)
Any TEAE, Grade 1: 5 (11) n (%)
Any TEAE, Grade 2: 11 (25) n (%)
Any TEAE, Grade 3: 21 (48) n (%)
Any TEAE, Grade 4: 3 (7) n (%)
Any treatment-related AE, Any grade: 41 (93) n (%)
Any treatment-related AE, Grade 1: 13 (30) n (%)
Any treatment-related AE, Grade 2: 11 (25) n (%)
Any treatment-related AE, Grade 3: 16 (36) n (%)
Any treatment-related AE, Grade 4: 1 (2) n (%)
Asthenia TEAE, Any grade: 9 (20) n (%)
Asthenia TEAE, Grade 1: 3 (7) n (%)
Asthenia TEAE, Grade 2: 6 (14) n (%)
Asthenia TEAE, Grade 3: 0 (0) n (%)
Asthenia TEAE, Grade 4: 0 (0) n (%)
Back pain TEAE, Any grade: 5 (11) n (%)
Back pain TEAE, Grade 1: 3 (7) n (%)
Back pain TEAE, Grade 2: 2 (5) n (%)
Back pain TEAE, Grade 3: 0 (0) n (%)
Back pain TEAE, Grade 4: 0 (0) n (%)
Constipation TEAE, Any grade: 18 (41) n (%)
Constipation TEAE, Grade 1: 13 (30) n (%)
Constipation TEAE, Grade 2: 4 (9) n (%)
Constipation TEAE, Grade 3: 1 (2) n (%)
Constipation TEAE, Grade 4: 0 (0) n (%)
Cough TEAE, Any grade: 5 (11) n (%)
Cough TEAE, Grade 1: 5 (11) n (%)
Cough TEAE, Grade 2: 0 (0) n (%)
Cough TEAE, Grade 3: 0 (0) n (%)
Cough TEAE, Grade 4: 0 (0) n (%)
Decreased appetite TEAE, Any grade: 7 (16) n (%)
Decreased appetite TEAE, Grade 1: 5 (11) n (%)
Decreased appetite TEAE, Grade 2: 2 (5) n (%)
Decreased appetite TEAE, Grade 3: 0 (0) n (%)
Decreased appetite TEAE, Grade 4: 0 (0) n (%)
Diarrhea TEAE, Any grade: 15 (34) n (%)
Diarrhea TEAE, Grade 1: 9 (20) n (%)
Diarrhea TEAE, Grade 2: 5 (11) n (%)
Diarrhea TEAE, Grade 3: 1 (2) n (%)
Diarrhea TEAE, Grade 4: 0 (0) n (%)
Dose reduction because of TEAE, Any grade: 8 (18) n (%)
Dose reduction because of TEAE, Grade 1: 0 (0) n (%)
Dose reduction because of TEAE, Grade 2: 1 (2) n (%)
Dose reduction because of TEAE, Grade 3: 6 (14) n (%)
Dose reduction because of TEAE, Grade 4: 1 (2) n (%)
Dosing delay/interruption because of TEAE, Any grade: 26 (59) n (%)
Dosing delay/interruption because of TEAE, Grade 1: 1 (2) n (%)
Dosing delay/interruption because of TEAE, Grade 2: 9 (20) n (%)
Dosing delay/interruption because of TEAE, Grade 3: 16 (36) n (%)
Dosing delay/interruption because of TEAE, Grade 4: 0 (0) n (%)
Dry eye TEAE, Any grade: 5 (11) n (%)
Dry eye TEAE, Grade 1: 4 (9) n (%)
Dry eye TEAE, Grade 2: 1 (2) n (%)
Dry eye TEAE, Grade 3: 0 (0) n (%)
Dry eye TEAE, Grade 4: 0 (0) n (%)
Dry mouth TEAE, Any grade: 11 (25) n (%)
Dry mouth TEAE, Grade 1: 10 (23) n (%)
Dry mouth TEAE, Grade 2: 1 (2) n (%)
